Values quoted from earlier work in patent EP3623369A1, “NOVEL MORPHOLINYL AMINE COMPOUNDS FOR THE TREATMENT OF AUTOIMMUNE DISEASE” (F. Hoffmann-La Roche AG, priority 2018, dated 2020).

Biological target: T1, hTLR9 (Homo sapiens, UniProt Q9NR96)
T1 sequence (Q9NR96 26-1032): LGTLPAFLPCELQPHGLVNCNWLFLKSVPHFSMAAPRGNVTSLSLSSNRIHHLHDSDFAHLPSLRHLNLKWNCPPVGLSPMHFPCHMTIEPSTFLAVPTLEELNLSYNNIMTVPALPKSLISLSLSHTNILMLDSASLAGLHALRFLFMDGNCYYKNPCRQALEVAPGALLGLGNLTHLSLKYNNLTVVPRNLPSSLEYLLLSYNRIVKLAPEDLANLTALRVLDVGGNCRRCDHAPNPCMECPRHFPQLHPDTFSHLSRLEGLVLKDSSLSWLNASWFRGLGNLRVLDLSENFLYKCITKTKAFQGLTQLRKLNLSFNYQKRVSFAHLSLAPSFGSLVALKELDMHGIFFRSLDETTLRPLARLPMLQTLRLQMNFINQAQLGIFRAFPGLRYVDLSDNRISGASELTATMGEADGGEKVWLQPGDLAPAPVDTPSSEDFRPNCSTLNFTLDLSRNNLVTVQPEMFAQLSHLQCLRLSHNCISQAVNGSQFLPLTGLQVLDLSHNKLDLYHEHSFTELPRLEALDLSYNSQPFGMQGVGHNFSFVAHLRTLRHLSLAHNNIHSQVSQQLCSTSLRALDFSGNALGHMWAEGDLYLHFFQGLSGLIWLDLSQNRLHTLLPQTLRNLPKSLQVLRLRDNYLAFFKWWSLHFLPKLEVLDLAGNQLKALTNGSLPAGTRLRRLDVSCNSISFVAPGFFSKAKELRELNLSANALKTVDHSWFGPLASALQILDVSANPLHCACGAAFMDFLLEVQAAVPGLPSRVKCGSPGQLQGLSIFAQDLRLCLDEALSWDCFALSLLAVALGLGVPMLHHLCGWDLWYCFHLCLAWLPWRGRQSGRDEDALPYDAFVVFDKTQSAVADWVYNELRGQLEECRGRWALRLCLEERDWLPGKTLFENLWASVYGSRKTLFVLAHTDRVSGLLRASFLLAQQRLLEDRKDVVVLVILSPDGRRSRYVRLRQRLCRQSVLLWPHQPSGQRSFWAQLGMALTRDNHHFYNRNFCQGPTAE
Parameters: host or cells: HEK
Details: data disclosed in US20150105370; read-out: HEK/hTLR9 IC50; cited from earlier work

In the case of C[C@@H]1CN(c2ccc(C#N)c3ncccc23)C[C@H](CNCc2ccccc2)O1 [ER-886509, reference compound], the IC50 is listed as 3.94 µM.
